# Source: patent US20230110378A1, “MONOBACTAM COMPOUND AND USE THEREOF” (EVOPOINT BIOSCIENCES CO., LTD., priority 2019, published 2023)
# Read-outs that look alike come from different tables or passages of the source.
# Assays:
# [1] = system: Enterobacter cloacae HDBECL 30030; experiment: Minimum inhibitory concentration (broth microdilution, CLSI); assay type: cell-based; conditions: HDBECL30030
# Experimental: (§1) 103 bacterial strains used for the minimum inhibitory concentration test were frozen in a −80° C. ULT freezer and thawed 2 days before use. A small amount of frozen microorganism bacteria were scraped using a sterile inoculating loop, streaked onto a suitable solid culture dish for inoculation, and then cultured for about 20 h at 35 t 2° C. in a normal incubator. • Proteus mirabilis HDBPM 40: MA, normal atmospheric environment • The remaining 102 strains of bacteria: TSA, normal atmospheric environment
# (§2) 5-10 colonies with similar morphology were picked from the culture dish using a sterile inoculating loop and then re-streaked onto a corresponding solid culture dish. Then the dish was incubated in a normal incubator at 35 t 2° C. for about 20 h.
# (§3) 5-10 single microbial colonies were picked from the solid culture dish, resuspended in 500 μL of sterile normal saline (0.9% NaCl), and adjusted to an OD600 of about 0.15 with a spectrophotometer.
# (§4) The bacteria were then diluted 300-fold with 1.02×CAMHB to an inoculation concentration of 2×10^5 CFU/mL.
# (§5) • There were a total of 3 assay plate patterns, one of which was used for each assay. • 8 rows of the assay plate (rows A-H) were for 8 test compounds, respectively. The highest test concentration of the compounds was 16, 32 or 64 μg/mL, and each compound was diluted 2-fold. • Growth control (GC): a medium containing microbial inoculum (1.02×CAMHB) and dimethylsulfoxide (DMSO) but no compound.
# (§6) The test and reference compounds were dissolved in DMSO or H2O to prepare 6.4 mg/mL stock solutions. The stock solutions were diluted to prepare standby solutions with certain concentrations, and the volumes of the standby solutions were determined according to the experimental design. Corresponding volumes of the standby solutions were transferred to the starting wells of a dilution plate (A1-H1), and half the starting-well volume of DMSO to the other wells. Each compound was diluted 2-fold sequentially from column 1 to column 11 (e.g., transferring 30 μL of DMSO to columns 2-12 first, then pipetting 30 μL of the compounds from column 1 to column 2 and mixing them well, then pipetting 30 μL of the compounds from column 2 to column 3 and mixing them well, then pipetting 30 μL of the compounds from column 3 to column 4 and mixing them well, and so on to column 11).
# (§7) 1 or 2 μL of the compounds and DMSO were transferred from the compound plate to corresponding wells of the assay plates.
# (§8) 98 μL of corresponding bacterial inocula were added to the assay plates.
# (§9) After addition, the assay plates were covered with sterile covers. The mixtures in the assay plates were centrifuged in a centrifuge at 800 rpm for 30 s, mixed well on a microplate shaker at 400 rpm for 1 min, and incubated in a normal incubator at 35 t 2° C. for 20-24 h.
# (§10) The assay plates were placed on a plate reading device, and the speculum was adjusted to observe and record the growth condition of bacteria in each well. In the mean time, each assay plate was photographed with QCount system.
# (§11) The minimum inhibitory concentration of each compound was recorded by reference to guidelines from the Clinical and Laboratory Standards Institute.
# (§12) The minimum inhibitory concentrations of the compounds against experimental strains were tested in this study by reference to the medium microdilution method as indicated by the Clinical and Laboratory Standards Institute. Compounds were diluted two-fold in 96-well plates from the highest detection concentration of 16, 32 or 64 μg/mL. The bacterial inocula in the assay plates were thawed from corresponding medium plates and diluted in 1.02×CAMHB, while growth controls (GC wells) were set up in the assay plates. The minimum inhibitory concentration of each compound against different bacteria was observed and recorded after the assay plates were incubated in a normal incubator at 35 t 2° C. for about 20 h. The minimum inhibitory concentration values for the different compounds are listed in the list below.
# [2] = system: Escherichia coli HDBEC 30008; experiment: as above; assay type: cell-based; conditions: HDBEC30008
# Experimental: as §1, §2, §3, §4, §5, §6, §7, §8, §9, §10, §11, §12
# [3] = system: Escherichia coli HDBEC 30016; experiment: as above; assay type: cell-based; conditions: HDBEC30016
# Experimental: as §1, §2, §3, §4, §5, §6, §7, §8, §9, §10, §11, §12
# [4] = system: Escherichia coli HDBEC 30048; experiment: as above; assay type: cell-based; conditions: HDBEC30048
# Experimental: as §1, §2, §3, §4, §5, §6, §7, §8, §9, §10, §11, §12
# [5] = system: Klebsiella pneumoniae HDBKP 30006; experiment: as above; assay type: cell-based; conditions: HDBKP30006
# Experimental: as §1, §2, §3, §4, §5, §6, §7, §8, §9, §10, §11, §12
# [6] = system: Klebsiella pneumoniae HDBKP 9153; experiment: as above; assay type: cell-based; conditions: HDBKP9153
# Experimental: as §1, §2, §3, §4, §5, §6, §7, §8, §9, §10, §11, §12
# [7] = system: Klebsiella pneumoniae HDBKP 9249; experiment: as above; assay type: cell-based; conditions: HDBKP9249
# Experimental: as §1, §2, §3, §4, §5, §6, §7, §8, §9, §10, §11, §12
# [8] = system: Proteus mirabilis HDBPM 40; experiment: as above; assay type: cell-based; conditions: HDBPM40
# Experimental: as §1, §2, §3, §4, §5, §6, §7, §8, §9, §10, §11, §12
# [9] = system: Pseudomonas aeruginosa HDBPA 5679; experiment: as above; assay type: cell-based; conditions: HDBPA5679
# Experimental: as §1, §2, §3, §4, §5, §6, §7, §8, §9, §10, §11, §12
# [10] = system: metallo-β-lactamase-expressing Acinetobacter baumannii strain ABA-0003YK; experiment: as above; assay type: cell-based; conditions: read-out: MIC A. baumannii ABA-0003YK
# Experimental: as §1, §2, §3, §4, §5, §6, §7, §8, §9, §10, §11, §12
# [11] = Pharmacokinetic evaluation of compounds in mice (tail vein injection); assay type: in vivo, Male CD-1 (ICR) mice; conditions: CD-1 (ICR), mouse, male CD-1 mice, intravenous injection, plasma; for half-life: read-out: T½ (converted); for Vd: read-out: Vss
# Experimental: Male CD-1 (ICR) mice were purchased and then acclimatized in this laboratory for at least 3 days. […] Blood samples were collected from the saphenous vein at 0.0833 h, 0.25 h, 0.5 h, 1 h, 2 h, 4 h, 8 h and 24 h following the tail vein injection administration. The volume of blood collection at each time point of the blood collection was about 30 μL. The blood samples were placed in centrifuge tubes containing anticoagulant EDTA-K2 and centrifuged at 3,200 g at 4° C. for 10 min, and then the upper plasma samples were collected and preserved in a freezer at −70±10° C. for later tests.
# 1) To 1.5 mL centrifuge tubes were added a 6 μL aliquot of an unknown sample, a standard curve, a quality control, a dilution quality control, single blank and double blank samples.
# 2) Each sample (except for the double blank sample) was treated with 120 μL of IS1-containing precipitant (the double blank sample was treated with 120 μL of pure MeOH for precipitation), and the mixtures were well mixed (for at least 15 s) using a vortexer and centrifuged at 12,000 g at 4° C. for 15 min.
# 3) 60 μL of the supernatants were transferred to a 96-well plate and centrifuged at 4° C. at 3220 g for 5 min, and 6 p L of the supernatants were injected for LC-MS/MS quantitative analysis.
# 1) The 1 h-plasma samples from the 3 mice were diluted 10-fold: 2 p L of the samples were added to 18 p L of blank matrix.
# 2) The 0.0833 h to 0.5 h-plasma samples from the 3 mice were diluted 100-fold: 18 μL of blank matrix was added to 2 p L of the samples to obtain 10-fold diluted samples. 2 μL of the 10-fold diluted samples were added to 18 p L of blank matrix to obtain 100-fold diluted analysis samples.
# LC-MS/MS analysis conditions: chromatography column: ACQUITY UPLC HSS T3 (2.1×50 mm, 1.8 μm); column temperature: 50° C.; mobile phase A: a 0.1% aqueous solution of formic acid; mobile phase B: a 0.1% solution of formic acid in acetonitrile; flowrate: 0.65 mL/min. Internal standard: verapamil (100 ng/mL)
# The concentration of the compounds in plasma was measured by LC-MS/MS (LC-MS/MS-AK_Q-Trap 6500). The pharmacokinetic software WinNonlin [version: Phoenix™ WinNonlin®6.3, manufacturer: Pharsight Corporation] was used to calculate pharmacokinetic parameters (V-Noncompartmental model 201).
SMILES,MIC [1] [µg/mL],MIC [2] [µg/mL],MIC [3] [µg/mL],MIC [4] [µg/mL],MIC [5] [µg/mL],MIC [6] [µg/mL],MIC [7] [µg/mL],MIC [8] [µg/mL],MIC [9] [µg/mL],MIC [10] [µg/mL],AUC ([11]; dose 5 mg/kg) [ng·h/mL],clearance ([11]; dose 5 mg/kg) [mL/min/kg],half-life ([11]; dose 5 mg/kg) [min],Vd ([11]; dose 5 mg/kg) [L/kg],AUC ([11]; dose 10 mg/kg) [ng·h/mL],clearance ([11]; dose 10 mg/kg) [mL/min/kg],half-life ([11]; dose 10 mg/kg) [min],Vd ([11]; dose 10 mg/kg) [L/kg]
"C[C@H]1[C@H](NC(=O)/C(=N\OC(C)(C)C(=O)O)c2csc(N)n2)C(=O)N1S(=O)(=O)O [Aztreonam, reference compound]",> 16,8 to 16,> 16,> 16,> 16,> 16,> 16,8 to 16,> 16,> 16,–,–,–,–,–,–,–,–
CC(C)(O/N=C(\C(=O)N[C@@H]1C(=O)N(S(=O)(=O)O)[C@@H]1CNC(=O)c1cc([C@@H]2CCN(C(=O)c3cc(=O)c(O)cn3O)C2)no1)c1csc(N)n1)C(=O)O [Compound I-7],< 4,< 4,4 to 8,< 4,> 16,< 4,> 16,< 4,< 4,< 4,4240,19.6,16.2,0.48,–,–,–,–
CC(C)(O/N=C(\C(=O)N[C@@H]1C(=O)N(S(=O)(=O)O)[C@@H]1CNC(=O)c1cc([C@@H]2CCN(C(=O)c3ccc(O)c(O)c3Cl)C2)no1)c1csc(N)n1)C(=O)O [Compound I-27],< 4,< 4,< 4,< 4,4 to 8,< 4,4 to 8,< 4,< 4,< 4,–,–,–,–,–,–,–,–
C[n+]1cc(-c2ncc(C(=O)NC[C@@H]3[C@H](NC(=O)/C(=N\OC4(C(=O)O)CC4)c4csc(N)n4)C(=O)N3S(=O)(=O)O)s2)cn1CCCNC(=O)c1ccc(O)c(O)c1Cl [Compound I-28],< 4,< 4,< 4,< 4,4 to 8,< 4,< 4,< 4,< 4,< 4,–,–,–,–,–,–,–,–
CC(C)(O/N=C(\C(=O)N[C@@H]1C(=O)N(S(=O)(=O)O)[C@@H]1CNC(=O)c1cnc([C@@H]2CCN(C(=O)c3ccc(O)c(O)c3Cl)C2)s1)c1csc(N)n1)C(=O)O [Compound I-30],< 4,< 4,< 4,< 4,4 to 8,< 4,4 to 8,< 4,< 4,< 4,–,–,–,–,–,–,–,–
CC(C)(O/N=C(\C(=O)N[C@@H]1C(=O)N(S(=O)(=O)O)[C@@H]1CNC(=O)c1cc(C2CC[N+](C)(CCNC(=O)c3ccc(O)c(O)c3Cl)C2)no1)c1csc(N)n1)C(=O)O (some centres unmarked) [Compound I-32],< 4,< 4,4 to 8,< 4,8 to 16,< 4,< 4,< 4,< 4,< 4,–,–,–,–,–,–,–,–
C[n+]1cc(-c2ncc(C(=O)NC[C@@H]3[C@H](NC(=O)/C(=N\OC(C)(C)C(=O)O)c4csc(N)n4)C(=O)N3S(=O)(=O)O)s2)cn1CCCNC(=O)c1ccc(O)c(O)c1Cl [Compound I-33],< 4,< 4,< 4,< 4,8 to 16,< 4,4 to 8,< 4,< 4,< 4,–,–,–,–,–,–,–,–
CC(C)(O/N=C(\C(=O)N[C@@H]1C(=O)N(S(=O)(=O)O)[C@@H]1CNC(=O)c1cc([C@@H]2CCN(CCNC(=O)c3ccc(O)c(O)c3Cl)C2)no1)c1csc(N)n1)C(=O)O [Compound I-35],< 4,< 4,< 4,< 4,< 4,< 4,4 to 8,< 4,< 4,–,–,–,–,–,8530,19.5,85.8,0.57
Cc1c(O)c(=O)cc(C(=O)N2CC[C@@H](c3cc(C(=O)NC[C@@H]4[C@H](NC(=O)/C(=N\OC(C)(C)C(=O)O)c5csc(N)n5)C(=O)N4S(=O)(=O)O)on3)C2)n1O [Compound I-43],< 4,< 4,< 4,< 4,8 to 16,< 4,8 to 16,< 4,< 4,–,–,–,–,–,9660,17.3,35.4,0.24
Cc1c(C(=O)N2CC[C@@H](c3cc(C(=O)NC[C@@H]4[C@H](NC(=O)/C(=N\OC(C)(C)C(=O)O)c5csc(N)n5)C(=O)N4S(=O)(=O)O)on3)C2)n(O)c(C)c(O)c1=O [Compound I-44],< 4,< 4,4 to 8,< 4,8 to 16,< 4,8 to 16,< 4,< 4,–,–,–,–,–,17300,9.61,37.8,0.19
